Test results taken from patent publication US4983632A, “Use of gamma-hydroxybutyric acid salts for preparing pharmaceutical compositions for use in the treatment of alcoholism, and the compositions obtained” (Laboratorio Farmaceutico C.T. S.r.l., priority 1988, dated 1991).
Structures can show the parent of a compound that is named as a salt.

Legend:
[1] = Acute toxicity for intraperitoneal administration in the mouse; format: in vivo; conditions: in vivo, ip; for mortality: read-out: Mortality (M + F)
mouse [2] = test: as above; format: in vivo
[3] = system: craving for drinks containing ethyl alcohol; test: Craving in alcohol-dependent individuals, open test; format: in vivo, man
Excerpt: (§1) To this end we have prepared a questionnaire entitled "Restrained Drinking and Alcohol Craving Scale" (RDAGS) and we have examined whether said questionnaire was capable of differentiating between alcoholics and non-alcoholics.
(§2) Finally, to the end of proving that the craving for drinks containing ethyl alcohol ("craving" for short) can be modified by pharmacological treatment with the compositions according to the present invention, we have selected 40 alcohol-dependent individuals according to the Diagnostic and Statistic Manual, 3rd edition Revised (DMS-III R) classification.
(§3) […] a NaGHB treatment at the doses of 0.05 g/kg/day in two administrations was given for an average period of 4-6 weeks.
For comparison, a group of 40 alcoholics was examined, using the same criteria as for the NaGHB treatment groups; to this group a psychological and/or socio-rehabilitation technique was applied, with no specific pharmacological support (polyvitamins only).

[4] = molecular target: T1, alcohol dehydrogenase (ADH) (Rattus norvegicus, UniProt P06757); test: ADH activity in supernatant of rat liver homogenate; format: biochemical; conditions: for ADH activity: mean±M.S.E. of three experiments
T1 construct: measured using the surnatant of rat liver homogenate; from tissue; host or cells: rat liver homogenate supernatant
T1 sequence (P06757 whole entry): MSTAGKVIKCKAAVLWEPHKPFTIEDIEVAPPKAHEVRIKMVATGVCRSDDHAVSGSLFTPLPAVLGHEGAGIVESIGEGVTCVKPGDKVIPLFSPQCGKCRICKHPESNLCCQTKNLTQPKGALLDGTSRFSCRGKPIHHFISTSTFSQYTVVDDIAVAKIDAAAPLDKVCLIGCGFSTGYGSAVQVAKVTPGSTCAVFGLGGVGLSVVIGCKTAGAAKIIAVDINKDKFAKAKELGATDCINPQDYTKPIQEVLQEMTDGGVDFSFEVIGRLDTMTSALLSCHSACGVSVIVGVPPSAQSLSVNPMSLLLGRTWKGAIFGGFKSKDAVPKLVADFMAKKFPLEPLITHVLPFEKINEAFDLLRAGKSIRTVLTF
Method: (§4) The ADH and ALDH activity were measured using the surnatant of rat liver homogenate. The ADH activity was measured by oxidising the ethanol to acetaldehyde in the presence of NAD in tubes containing NaGHB.
(§5) The formation of reduced nicotine-adenine dinucleotide (NADH) was determined by spectrometry measurement at 340 nm and the ALDH activity was determined in the same manner. In addition, pyrazole (0.03M) was added to the reaction mixture to inhibit ADH and propionaldehyde was added as substrate. Each value is the mean±M.S.E. of three experiments.

[5] = Acute toxicity for oral administration in the mouse; format: in vivo; conditions: in vivo; for mortality: read-out: Mortality (M+F)
mouse [6] = test: as above; format: in vivo
alcohol-preferring rats [7] = test: Voluntary consumption of ethanol in alcohol-preferring rats, NaGHB (Table 2); format: in vivo, male Wistar rats; conditions: for Ethanol consumption, treatment: three consecutive days
Method: The trial was carried out on male Wistar rats of initial weight 130-160 g. The alcohol-preferring rats were chosen from a heterogeneous rat population having an average age of 40 days. The animals were caged individually and kept in an environment at a temperature of 24° C., with light from 8.00 to 20.00 hous. The method used to select alcohol-preferring rats was to allow the animals to choose from two bottles, one containing water and the other containing an increasingly strong ethanol solution. The tapwater and the ethanol solution were administered from graduated bottles (Richter), their positon being changed irregularly to prevent the habit of drinking from the same bottle. Starting from a 3% ethanol solution, the concentration was increased by 1% every day to a maximum of 10%. This ethanol concentration was used for the whole trial period. The experiments were carried out only on rats by whom more than 60% of the liquid drunk had been 10% ethanol. The thus chosen rats imbibed a constant mean ethanol quantity of 3.2±0.4 g/rat/day. The weight of the animals during this period was 380±35 g, and therefore the consumption of absolute alcohol per rat per kg of body weight was 8±0.54 g.
Different randomly chosen groups of these animals were respectively treated with increasing doses of the sodium salt of gamma-hydroxy butyric acid (NaGHB) wheas the control group received the same volume of physiological solution (10 ml/kg). The quantity of ethanol and water imbibed was recorded before, during and after treatment at the same time each day, and the treatment was repeated for three consecutive days.
The results of this trial are given in Table 2 which compares ethanol consumption in g/kg before, during and after treatment with NaGHB at three different doses of 150, 300 and 450 mg/kg.

[8] = system: craving for drinks containing ethyl alcohol; test: Craving in alcohol-dependent individuals, double-blind test; format: in vivo, man
Excerpt: as §1
(§6) In order to obtain a further experimental confirmation of the results obtained in the open test, we have carried out a test in double-blind.
(§7) 80 individuals, alcohol dependent according to DSM III-R, were divided in two groups by simple randomization and treated with NaGHB or with a placebo at the doses of 0.05 g/kg/day divided in two administrations for a total of 60 days.

rat = test: Chronic toxicity tests on the rat; format: in vivo
[9] = system: aldehyde dehydrogenase (ALDH); test: ALDH activity in supernatant of rat liver homogenate; format: biochemical; conditions: for ALDH activity: pyrazole 0.03M, propionaldehyde substrate, mean±M.S.E. of three experiments
Method: as §4, §5

alcohol-preferring rats [10] = test: Inhibition of voluntary ethanol consumption by alcohol-preferring rats, PTT-01 (Table 1); format: in vivo, rat; conditions: mean of 10 animals
Excerpt: Each value represents the mean of 10 aminals.

[11] = system: craving for ethyl alcohol in alcoholics; test: Clinical study, craving for ethyl alcohol in alcoholics (overall); format: in vivo, man; conditions: overall clinical conclusion
Excerpt: To the end of demostrating the efficacy of the pharmaceutical compositions according to the invention we have furthermore carried out some […] tests to evaluate the efficacy of GHB salts in obtaining and mantaining abstention from alcoholic drinks in man; we synthetically report herein below the methods followed and the results obtained in one of such studies.
as §2, §3, §6, §7

[12] = system: aldehyde-dehydrogenase enzyme; conditions: assumed competition with NAD on active sites; cited from earlier work
[13] = cited from earlier work
patients = conditions: cited from earlier work
[14] = 0.05 g/kg/day in two administrations, 60 days, vs placebo

For `O=C(O)CCCO` [NaGHB, sodium salt of gamma-hydroxybutyric acid], the mortality ([1]; 2500 mg/kg, 2.5 g/kg) was 0%, the mortality ([1]; 3000 mg/kg, 3 g/kg) was 33.3% and the mortality ([1]; 3500 mg/kg, 3.5 g/kg) was 66.7%. For the same compound, the mortality ([1]; 4000 mg/kg, 4 g/kg) was 100%, the LD50 ([1]; Table 5, 95% CL 2.92-3.521) was 3210 mg/kg and the LD50 (mouse [2]) was 3210 mg/kg. For the same compound, the craving reduction ([3]; 0.05 g/kg/day in two administrations, 4-6 weeks) was “statistically highly significant craving reduction”, the “Craving decrease induced by NaGHB” value ([3]; 40 alcohol-dependents in open test (Table 6)) was “Efficient” and the ADH activity ([4]; 10^-3 molar) was 0.0239 ± 0.0015 D.O/min/mg prot. For the same compound, the ADH activity ([4]; 10^-4 molar) was 0.0240 ± 0.0018 D.O/min/mg prot, the ADH activity ([4]; 10^-5 molar) was 0.0245 ± 0.0018 D.O/min/mg prot and the “inhibition of alcohol dehydrogenase (ADH)” value ([4]; up to 10^-3 M) was “does not inhibit”. For the same compound, the mortality ([5]; 10000 mg/kg, 10 g/kg) was 0%, the mortality ([5]; 11000 mg/kg, 11 g/kg) was 33.3% and the mortality ([5]; 13000 mg/kg, 13 g/kg) was 66.6%. It also gave a mortality ([5]; 15000 mg/kg, 15 g/kg) of 100%, an LD50 ([5]; Table 4, 95% CL 10.95-13.17) of 12000 mg/kg and an LD50 (mouse [6]) of 12014 mg/kg. For the same compound, the “Ethanol consumption, post-treatment” value (alcohol-preferring rats [7]; NaGHB 150 mg/kg) was 7.02 ± 0.44 g/kg, the “Ethanol consumption, pretreatment” value (alcohol-preferring rats [7]; NaGHB 150 mg/kg group) was 7.71 ± 0.51 g/kg and the “Ethanol consumption, treatment” value (alcohol-preferring rats [7]; NaGHB 150 mg/kg) was 6.11 ± 0.21 g/kg. The “Ethanol consumption, post-treatment” value (alcohol-preferring rats [7]; NaGHB 300 mg/kg) was 5.88 ± 0.35 g/kg, the “Ethanol consumption, pretreatment” value (alcohol-preferring rats [7]; NaGHB 300 mg/kg group) was 7.48 ± 0.35 g/kg and the “Ethanol consumption, treatment” value (alcohol-preferring rats [7]; NaGHB 300 mg/kg) was 3.43 ± 0.23 g/kg. For the same compound, the “Ethanol consumption, post-treatment” value (alcohol-preferring rats [7]; NaGHB 450 mg/kg) was 5.10 ± 0.48 g/kg, the “Ethanol consumption, pretreatment” value (alcohol-preferring rats [7]; NaGHB 450 mg/kg group) was 7.82 ± 0.46 g/kg and the “Ethanol consumption, treatment” value (alcohol-preferring rats [7]; NaGHB 450 mg/kg) was 2.12 ± 0.11 g/kg. The “consumption of ethyl alcohol relative to consumption before treatment” value (alcohol-preferring rats [7]; daily administration, 450 mg/kg) was “below 50%”, the total imbibed fluid (alcohol-preferring rats [7]; during treatment) was “no significant reduction in total imbibed fluid” and the “Alcohol consumption and preference for alcohol after interrupting administration” value (alcohol-preferring rats [7]; five days after interruption) was “returned to their pre-treatment levels five days after interrupting the administration of the medicament”. The drop-out percentage [8, 14] was “lower, statistically significant, drop-out percentage”, the “improvement of the craving” value [8, 14] was “notable improvement of the craving” and the “Craving decrease induced by NaGHB” value ([8]; 40 alcohol dependents in double blind test (Table 6)) was “Efficient”. For the same compound, the “toxic action at organ level” value (rat) was “No toxic action at organ level was observed”, the acetaldehyde metabolism [9] was “without in any way altering acetaldehyde metabolism” and the ALDH activity ([9]; 10^-3 molar) was 0.0132 ± 0.0009 D.O/min/mg prot. For the same compound, the ALDH activity ([9]; 10^-4 molar) was 0.0138 ± 0.0011 D.O/min/mg prot, the ALDH activity ([9]; 10^-5 molar) was 0.0135 ± 0.0010 D.O/min/mg prot and the “inhibition of aldehyde dehydrogenase (ALDH)” value ([9]; up to 10^-3 M) was “does not inhibit”.
In the case of `CCCCC(=O)NC1CCOC1=O` (stereo not drawn) [PTT-01, α-n-butyl carbonylamino-gamma-butyro lactone], the “Ethanol consumption, pretreatment” value (alcohol-preferring rats [10]; PTT-01 100 mg/kg group) is reported as 7.21 ± 0.40 g/kg, the “Ethanol consumption, post-treatment” value (alcohol-preferring rats [10]; PTT-01 100 mg/kg) is reported as 7.24 ± 0.44 g/kg and the “Ethanol consumption, treatment” value (alcohol-preferring rats [10]; PTT-01 100 mg/kg) is reported as 7.03 ± 0.38 g/kg. The “Ethanol consumption, pretreatment” value (alcohol-preferring rats [10]; PTT-01 200 mg/kg group) was 7.70 ± 0.28 g/kg, the “Ethanol consumption, post-treatment” value (alcohol-preferring rats [10]; PTT-01 200 mg/kg) was 7.36 ± 0.51 g/kg and the “Ethanol consumption, treatment” value (alcohol-preferring rats [10]; PTT-01 200 mg/kg) was 7.51 ± 0.41 g/kg. For the same compound, the “Ethanol consumption, pretreatment” value (alcohol-preferring rats [10]; PTT-01 300 mg/kg group) was 7.08 ± 0.19 g/kg, the “Ethanol consumption, post-treatment” value (alcohol-preferring rats [10]; PTT-01 300 mg/kg) was 6.98 ± 0.15 g/kg and the “Ethanol consumption, treatment” value (alcohol-preferring rats [10]; PTT-01 300 mg/kg) was 7.00 ± 0.46 g/kg.
With `O=C(O)CCCO` [GHB, gamma-hydroxybutyric acid] the “suppression of craving for ethyl alcohol in alcoholics” value [11] was “surprising activity of GHB in suppressing the craving for ethyl alcohol in alcoholics”.
For `CCN(CC)C(=S)SSC(=S)N(CC)CC` [disulfiram], the acetaldehyde oxidation rate [12] is given as “reducing the acetaldehyde oxidation rate”, the “acetaldehyde level in the blood, times greater than with alcohol alone” value ([13]; alcohol after disulfiram pretreatment vs same dose of alcohol only) is given as 5-10 times and the acetaldehyde concentration ([13]; in the presence of disulfiram) is given as “acetaldehyde concentration increases”. For the same compound, the “toxicity when administered alone” value (patients; alone, therapeutic doses) was “not toxic, although not completely innocuous”, the side effects (patients; disulfiram itself) was “can cause acneform eruptions, allergic dermatitis, urticaria, tiredness, fatique, tremors, reduced sexual power, gastric disturbances and digestive disturbances” and the “adverse reactions following disulfiram treatment” value (patients; following treatment, discussed with ingestion of alcohol) was “cases of respiratory depression, cardiovascular collapse, cardiac arrhythmia, myocardium infarct, and sudden or unexpected death have occurred”. For the same compound, the “refusal of alcoholic drinks” value (patients; patients treated) was “refuse alcoholic drinks”.
